Tests used:
hFXR [1] = biological target: T1, hFXR (Homo sapiens, UniProt Q96RI1); experiment: In Vitro FXR Assay (TK), luciferase reporter in transfected CV-1 cells; assay type: cell-based; details: CV-1 cells transfected with hFXR, hRXR, TK-ECRE-luc; 18 hrs incubation; luminescence; compounds with a maximum efficacy of <25% of the Fexaramine control classified as '+'
T1 construct: expressed in transfected cells; host or cells: CV-1 cells
T1 sequence (Q96RI1 1-486): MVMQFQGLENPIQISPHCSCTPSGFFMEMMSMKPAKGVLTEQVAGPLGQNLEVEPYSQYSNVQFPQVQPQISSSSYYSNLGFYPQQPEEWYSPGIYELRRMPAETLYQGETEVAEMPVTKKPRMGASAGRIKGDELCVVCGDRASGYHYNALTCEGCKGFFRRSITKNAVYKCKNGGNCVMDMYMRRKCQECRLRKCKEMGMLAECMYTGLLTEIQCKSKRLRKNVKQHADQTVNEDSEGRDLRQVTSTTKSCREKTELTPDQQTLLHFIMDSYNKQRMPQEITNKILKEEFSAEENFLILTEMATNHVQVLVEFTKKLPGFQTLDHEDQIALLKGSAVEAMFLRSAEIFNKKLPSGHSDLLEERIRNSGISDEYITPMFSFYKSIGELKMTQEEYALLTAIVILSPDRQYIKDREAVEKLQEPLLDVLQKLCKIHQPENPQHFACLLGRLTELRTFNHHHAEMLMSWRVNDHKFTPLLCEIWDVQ
T1 sequence (P19793 1-462 partner): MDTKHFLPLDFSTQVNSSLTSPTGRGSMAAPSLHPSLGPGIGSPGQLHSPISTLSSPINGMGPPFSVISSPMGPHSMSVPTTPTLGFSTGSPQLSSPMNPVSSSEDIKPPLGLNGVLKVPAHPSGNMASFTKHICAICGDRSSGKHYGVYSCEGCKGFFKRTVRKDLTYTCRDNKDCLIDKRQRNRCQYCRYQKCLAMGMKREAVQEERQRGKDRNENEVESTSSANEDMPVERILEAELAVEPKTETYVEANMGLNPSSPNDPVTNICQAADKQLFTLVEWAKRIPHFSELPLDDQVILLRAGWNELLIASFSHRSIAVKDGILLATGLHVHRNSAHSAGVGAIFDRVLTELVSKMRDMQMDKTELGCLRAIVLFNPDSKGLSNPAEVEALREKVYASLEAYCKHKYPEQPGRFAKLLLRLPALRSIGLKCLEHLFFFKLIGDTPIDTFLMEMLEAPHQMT
Description: Example B-2: In Vitro FXR Assay (TK)
CV-1 cells were seeded at a density of 2,000,000 cells in a T175 flask with DMEM+10% charcoal double-stripped FBS and incubated at 37° C. in 5% CO2 for 18 h (O/N).
After 18 h of incubation, the medium in the T175 flask was changed with fresh DMEM+10% charcoal super-stripped serum. In a polypropylene tube, 2500 μL OptiMEM (Life Technologies, Cat #31985-062) was combined with expression plasmids for hFXR, hRXR, TK-ECRE-luc and pCMX-YFP. The tube was then briefly vortexed and incubated at room temperature for 5 minutes. Transfection reagent (X-tremeGENE HP from Roche, Cat #06 366 236 001) was added to the OptiMEM/plasmid mixture vortexed and incubated at room temperature for 20 minutes. Following incubation, the transfection reagent/DNA mixture complex was added to cells in the T175 flask and the cells were incubated at 37° C. in 5% CO2 for 18 h (O/N).
Compounds were serially diluted in DMSO and added to transfected CV-1 cells. The cells were then incubated for 18 hrs. The next day cells were lysed and examined for luminescence.

hFXR [2] = biological target: T1, hFXR; experiment: In Vitro FXR Assay (PGL3), luciferase reporter in transfected CV-1 cells; assay type: cell-based; details: CV-1 cells transfected with hFXR, hRXR, PGL3-ECRE*6-luc; 18 hrs incubation; luminescence
Description: Example B-1: In Vitro FXR Assay (PGL3)
CV-1 cells were seeded at a density of 2,000,000 cells in a T175 flask with DMEM+10% charcoal double-stripped FBS and incubated at 37° C. in a 5% CO2 for 18 h (O/N).
After 18 h of incubation, the medium in the T175 flask was changed with fresh DMEM+10% charcoal super-stripped serum.
To prepare the transfection reaction mixture, the transfection reagent (X-tremeGENE HP from Roche, Cat #06 366 236 001) was added in to a 1.5 mL microcentrifuge tube labelled “A” at a ratio of 1:3 (DNA in g: transfection reagent in μL). OptiMEM medium (Life Technologies, Cat #31985-062) was added accordingly to provide a total volume of 1 mL. The transfection reaction mixture was then briefly vortexed and incubated at room temperature for 5 minutes.
In a separate 1.5 mL microcentrifuge tube labelled “B”, 100 μL OptiMEM and plasmids XPD90Gal pCMXhFXRfl, pCMXhRXRfl+PGL3-ECRE*6-luc+CMX-YFP in the ratio 2 g: 2 g:18 g:3 g were added. This microcentrifuge tube “B” was then briefly vortexed and incubated at room temperature for 5 minutes.
The total volume in tube labelled “A” was then transferred in to tube labelled “B.” The mixture was then briefly vortexed and the transfection:DNA complex was then incubated for about 15-20 minutes at room temperature.
Following incubation, the transfection reagent/DNA mixture complex was then added to cells in the T175 flask and the cells were incubated at […] (O/N) at 37° C. in 5% CO2.
In a 96 well plate, a half logarithmic serial dilution was prepared. OptiMEM was used as the diluent. Using any of one of the compounds described herein, a compound stock solution of 10 mM was prepared. An initial 1:100 dilution was made into the first well for a final concentration of 100 μM. The final concentrations in the 96-well plate was prepared by using a multichannel pipette to transfer 5 μL of the diluted compound to 384-well plate in quadruplicate.
Cells in T175 flask were trypsinized and cells were resuspending in 40 mL phenol red free DMEM+10% charcoal super-stripped FBS. Typically, one T175 flask was sufficient to seed two 384 well plates. CV-1 cells were seeded at 45 μL cell suspension/well using a multichannel pipet or a 384 multidrop dispenser. The cells were then incubated for 18 hrs, overnight.
After removing the plates from the incubator, the medium was flicked out of plate and 384 well plate was turned upside down onto paper towel. The remaining medium was gently tapped out. 15 μL lysis buffer was then added to each well using a multichannel pipet or a 384 well multi-drop dispenser. After incubation for 10 minutes at room temperature on shaker, 30 μL Luciferase buffer was added to each well. Luminescence counts were taken immediately using the Perkin Elmer Envision.
The ability of the compounds disclosed herein to […] FXR activity was quantified and the respective EC50 value was determined. Fex=fexaramine.

| EC50 (hFXR [1]) | Cmpd/Fex (ratio of the EC50 for the test compound relative to the EC50 of the Fexaramine control) (hFXR [2]) | Compound |
| --- | --- | --- |
| 3 to 10 µM | +++ (‘+++’ means Cmpd/Fex <10) | COCCNc1cccc(N(Cc2ccc(-c3ccc(N(C)C)cc3)cc2)C(=O)C2CCCCC2)c1 [Compound 4, N-((4′-(dimethylamino)-[1,1′-biphenyl]-4-yl)methyl)-N-(3-((2-methoxyethyl)amino)phenyl)cyclohexanecarboxamide] |
| ≤ 3 µM | ++ (‘++’ means Cmpd/Fex >10 & <100) | COC(=O)CNc1cccc(N(Cc2ccc(-c3ccc(N(C)C)cc3)cc2)C(=O)C2CCCCC2)c1 [Compound 9, Methyl 2-((3-(N-((4′-(dimethylamino)-[1,1′-biphenyl]-4-yl)methyl)cyclohexanecarboxamido)phenyl)amino)acetate] |
| ≤ 3 µM | +++ (‘+++’ means Cmpd/Fex <10) | COc1cncc(-c2cccc(N(Cc3ccc(-c4ccc(N(C)C)cc4)cc3)C(=O)C3CCCCC3)c2)c1 [Compound 1, N-((4′-(Dimethylamino)-[1,1′-biphenyl]-4-yl)methyl)-N-(3-(5-methoxypyridin-3-yl)phenyl)cyclohexanecarboxamide] |
| ≤ 3 µM | + (‘+’ means Cmpd/Fex >100) | CN(C)C(=O)/C=C/c1cccc(N(Cc2ccc(-c3ccc(N(C)C)cc3)cc2)C(=O)C2CCCCC2)c1 [Compound 13, (E)-N-(3-(3-(Dimethylamino)-3-oxoprop-1-en-1-yl)phenyl)-N-((4′-(dimethylamino)-[1,1′-biphenyl]-4-yl)methyl)cyclohexanecarboxamide] |

— US11214538B2, “Farnesoid X receptor agonists and uses thereof” (Metacrine, Inc., priority 2015, dated 2022)
